How the values were obtained:
[1] = C57BL/6 female mice irradiated with 30 Gy, treated 8 weeks with Alda-341
Description: Pathology: A complete necropsy was performed by a certified veterinarian. Tissues from brain, heart, kidney, liver, esophagus, thymus, trachea, thyroid, lung, spleen, pancreas, trachea, stomach, pancreas, intestines, bladder, uterus and ovary were fixed on slides and scored for inflammation, necrosis, and apoptosis from a scale of 0 to 5. A complete blood count and blood chemistry panel was assessed by Stanford's Veterinary Services Center.

[2] = human, 2 g/d oral Alda-341 for 2 weeks
Description: Saliva and plasma samples were collected at baseline, and at the time of surgery, and normal salivary gland tissue was collected at the time of surgery.
Patients were required to be between 18 to 85 years of age, have elected to undergo surgery for recent diagnosis of parotid or submandibular gland tumor, and qualified for anesthesia. […] Patients were excluded from study participation if nursing or pregnant or diagnosed with kidney disease, end stage liver disease, metastatic cancer, or any unstable medical condition. […] Blood and saliva samples were collected at baseline and on the day of surgery. Normal and tumor salivary gland tissue were collected during surgery. Drug levels in tissue, plasma, and saliva were measured by the GCMS method described herein.
An aliquot of the heptane layer was used for analysis. […] Samples volumes of 1 μL splitless were injected with an inlet temperature of 220° C. The flow rate was constant at 1 mL/min. An Agilent DB-5MS UI column was used (30 m length, 0.250 mm inner diameter, 0.25 micron film). […] Calibration curves were linear from 4 to 8000 ng/mL.

[3] = tested on: SAS (human papillomavirus [HPV]-negative) head and neck squamous cell carcinoma cell line; assay: Xenograft study, SAS; type: in vivo, SCID mice; settings: Alda-341 from one week ahead of irradiation, during and post; 30 Gy over 5 fractions
Description: (§1) Xenograft study: Six-week old SCID mice were purchased from the Jackson laboratory and five mice per group were used. SCC90 and SAS cells (2×10^6 cells/injection) were implanted into both flanks of each mouse. Alda-341 treated one week ahead of irradiation and continued during and post radiation. Total 30 Gy over 5 fractions in a week was delivered to the tumor with the rest of the body shielded. Tumor size was measured every 1-2 days. Tumor volume was calculated by the formula (π×length×width×height)/6.

[4] = tested on: SSC90 (HPV-positive) head and neck squamous cell carcinoma cell line; assay: Xenograft study, SSC90; type: in vivo, SCID mice; settings: Alda-341 from one week ahead of irradiation, during and post; 30 Gy over 5 fractions
Description: as §1

[5] = target: T1, ALDH7A1 (Homo sapiens, UniProt P49419); assay: ALDH enzymatic assay, recombinant ALDH7A1; type: biochemical; settings: 5 μg/ml recombinant enzyme, 10 mM acetaldehyde, 20 μM Alda-341
T1 sequence (P49419 27-539): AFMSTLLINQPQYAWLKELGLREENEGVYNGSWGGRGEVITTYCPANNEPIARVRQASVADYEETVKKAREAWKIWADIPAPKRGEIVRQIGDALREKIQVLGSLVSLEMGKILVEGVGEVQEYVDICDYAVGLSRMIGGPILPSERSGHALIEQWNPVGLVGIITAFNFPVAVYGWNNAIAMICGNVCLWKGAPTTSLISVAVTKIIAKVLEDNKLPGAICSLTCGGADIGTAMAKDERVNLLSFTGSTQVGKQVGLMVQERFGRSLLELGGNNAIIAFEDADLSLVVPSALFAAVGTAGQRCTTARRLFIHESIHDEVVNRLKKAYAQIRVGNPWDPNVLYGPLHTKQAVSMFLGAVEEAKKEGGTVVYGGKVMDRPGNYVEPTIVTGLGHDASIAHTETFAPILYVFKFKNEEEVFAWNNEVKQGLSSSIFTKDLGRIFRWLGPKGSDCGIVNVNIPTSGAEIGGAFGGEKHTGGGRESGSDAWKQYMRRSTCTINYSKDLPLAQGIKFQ
Description: (§2) ALDH enzymatic assay: ALDH1A1, ALDH1A2, 2, 3A1, 3A2, 4A1, 5A1, 7A1 were measured as previously described using 5 μg/ml of recombinant protein (Chen, C. H., Cruz, L. A., and Mochly-Rosen, D. (2015) Pharmacological recruitment of aldehyde dehydrogenase 3A1 (ALDH3A1) to assist ALDH2 in acetaldehyde and ethanol metabolism in vivo. Proceedings of the National Academy of Sciences of the United States of America 112, 3074-3079). […] Assays were conducted in 50 mM NaPPi buffer (pH 7.4) in the presence of 2.5 mM NAD^+ and 10 mM substrate and measured in triplicate at 25° C. Dose response curve fits and EC50's were calculated using GraphPad Prism 7 software.

[6] = target: T2, ALDH4A1 (Homo sapiens, UniProt P30038); assay: ALDH enzymatic assay, recombinant ALDH4A1; type: biochemical; settings: 5 μg/ml recombinant enzyme, 10 mM acetaldehyde, 20 μM Alda-341
T2 sequence (P30038 25-563): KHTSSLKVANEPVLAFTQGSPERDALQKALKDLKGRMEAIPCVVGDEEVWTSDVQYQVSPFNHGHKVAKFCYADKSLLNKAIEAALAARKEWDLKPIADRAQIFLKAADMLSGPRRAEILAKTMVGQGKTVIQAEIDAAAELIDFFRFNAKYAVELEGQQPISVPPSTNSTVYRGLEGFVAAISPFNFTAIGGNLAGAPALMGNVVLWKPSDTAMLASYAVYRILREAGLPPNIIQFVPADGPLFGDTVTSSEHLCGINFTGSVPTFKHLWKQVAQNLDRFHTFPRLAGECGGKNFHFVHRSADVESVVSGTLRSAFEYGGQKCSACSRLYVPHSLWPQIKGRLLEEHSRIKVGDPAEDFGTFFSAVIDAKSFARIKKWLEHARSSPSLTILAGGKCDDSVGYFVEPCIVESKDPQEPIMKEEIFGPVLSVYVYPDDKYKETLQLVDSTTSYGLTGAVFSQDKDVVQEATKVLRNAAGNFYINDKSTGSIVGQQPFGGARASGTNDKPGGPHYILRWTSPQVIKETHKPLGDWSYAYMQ
Description: as §2

[7] = target: ALDH3A2 (Homo sapiens, UniProt P51648); assay: ALDH enzymatic assay, recombinant ALDH3A2; type: biochemical; settings: 5 μg/ml recombinant enzyme, 10 mM acetaldehyde, 20 μM Alda-341
Chain of ALDH3A2 (P51648 whole entry): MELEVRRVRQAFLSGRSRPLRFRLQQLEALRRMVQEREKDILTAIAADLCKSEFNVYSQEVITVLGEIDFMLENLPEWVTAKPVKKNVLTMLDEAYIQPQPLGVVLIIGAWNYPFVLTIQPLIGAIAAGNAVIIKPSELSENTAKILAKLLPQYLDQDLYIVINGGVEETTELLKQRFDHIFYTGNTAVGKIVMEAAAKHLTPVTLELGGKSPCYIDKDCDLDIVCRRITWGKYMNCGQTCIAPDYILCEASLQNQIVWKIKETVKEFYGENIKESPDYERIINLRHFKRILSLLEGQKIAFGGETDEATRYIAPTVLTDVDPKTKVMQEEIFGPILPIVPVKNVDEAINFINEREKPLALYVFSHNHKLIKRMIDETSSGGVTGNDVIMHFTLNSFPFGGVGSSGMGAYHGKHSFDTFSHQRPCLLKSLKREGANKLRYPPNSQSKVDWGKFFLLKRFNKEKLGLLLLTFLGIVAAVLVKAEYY
Description: as §2

[8] = target: T3, ALDH2 (Homo sapiens, UniProt P05091); assay: ALDH enzymatic assay, recombinant ALDH2; type: biochemical; settings: 5 μg/ml recombinant enzyme, 10 mM acetaldehyde, 20 μM Alda-341
T3 sequence (P05091 18-517): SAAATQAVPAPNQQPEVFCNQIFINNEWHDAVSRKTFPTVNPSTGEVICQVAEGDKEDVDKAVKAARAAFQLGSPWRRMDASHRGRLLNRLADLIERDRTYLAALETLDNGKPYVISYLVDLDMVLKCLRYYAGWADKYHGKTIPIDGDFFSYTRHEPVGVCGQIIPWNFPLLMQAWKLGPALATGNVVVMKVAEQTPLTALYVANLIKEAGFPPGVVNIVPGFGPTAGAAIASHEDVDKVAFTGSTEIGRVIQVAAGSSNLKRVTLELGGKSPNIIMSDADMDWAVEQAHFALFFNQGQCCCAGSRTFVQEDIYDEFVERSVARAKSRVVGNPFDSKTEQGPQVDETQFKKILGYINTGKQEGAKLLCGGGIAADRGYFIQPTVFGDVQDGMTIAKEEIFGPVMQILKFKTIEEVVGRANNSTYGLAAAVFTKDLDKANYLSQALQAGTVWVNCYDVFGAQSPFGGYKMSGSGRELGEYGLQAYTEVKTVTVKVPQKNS
Description: as §2

Compound: C=C(C)[C@H]1CC=C(C)CC1 [Alda-341, D-limonene]
- complete blood count and blood chemistry panel [1]: normal complete blood count and blood chemistry panel
- average plasma drug levels after treatment [2]: 144.3 ng/mL
- tumor growth and protection of tumors from radiation, SAS xenograft [3]: did not increase tumor growth or protect tumors from radiation
- tumor growth and protection of tumors from radiation, SSC90 xenograft [4]: did not increase tumor growth or protect tumors from radiation
- catalytic activity of ALDH7A1 [5]: did not increase
- catalytic activity of ALDH4A1 [6]: did not increase
- catalytic activity of ALDH3A2 [7]: did not increase
- catalytic activity of ALDH2 [8]: did not increase

Source: US20190060249A1 (priority 2017, published 2019)
